Test results: US8778926B2, “Compounds, pharmaceutical compositions and uses thereof” (Boehringer Ingelheim International GmbH, priority 2011, dated 2014)

The compounds below were run against T1, human GPR119 (Homo sapiens, UniProt Q8TDV5) (assay: AlphaScreen cAMP assay, activation of GPR119 in Min-6/hGPR119 cells). Conditions: MIN6 cells stably transfected with human GPR119; intracellular cAMP; 45 minutes incubation at room temperature.
T1 construct: expression vector for human GPR119 cDNA (Acc. No. NP_848566); expressed in transfected cells
T1 sequence (Q8TDV5 1-335): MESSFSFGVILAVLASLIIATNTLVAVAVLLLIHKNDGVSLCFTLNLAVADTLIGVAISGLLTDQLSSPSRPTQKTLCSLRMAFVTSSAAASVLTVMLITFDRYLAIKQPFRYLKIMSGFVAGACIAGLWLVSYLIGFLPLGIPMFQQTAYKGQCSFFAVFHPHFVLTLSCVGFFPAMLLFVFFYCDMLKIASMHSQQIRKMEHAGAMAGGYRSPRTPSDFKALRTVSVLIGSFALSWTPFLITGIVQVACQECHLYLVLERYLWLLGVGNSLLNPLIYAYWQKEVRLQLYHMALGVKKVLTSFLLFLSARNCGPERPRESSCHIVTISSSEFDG
Assay type: cell-based
Protocol: The compounds of formula I according to the invention modulate the activity of the G-protein-coupled receptor GPR119. The effect of the compounds on the activation of GPR119 and on the stimulation of intracellular cAMP concentration is determined using the AlphaScreen cAMP Assay Kit (Cat. No. #6760625R) made by PerkinElmer.
MIN6 cells [Miyazaki J et al. Endocrinology. 1990 July; 127(1):126-32] are stably transfected with an expression vector for human GPR119 cDNA (Acc. No. NP_848566). Min-6/hGPR119 cells are cultured in DMEM, 10% FBS, 500 μM β-mercaptoethanol, 0.3 mg/mL Geniticin, 2 mM GlutaMAX at 37° C. 5% CO2. For the assay, the cells are seeded in Optiplates (white, 384-well, 160 W— barcoded, TC, sterile with lid, Cat. No. #6007688 (Perkin Elmer); 10000 cells/well; 50 μl). The plates covered with lids are then incubated for 24 hours at 37° C./5% CO2. After the medium is aspirated from the wells completely, 10 μl of the test compound are added, the compounds are diluted using stimulating buffer (140 mM NaCl, 3.6 mM KCl, 0.5 mM NaH2PO4, 0.5 mM MgSO4, 1.5 mM CaCl2, 10 mM Hepes, 5 mM NaHCO3; pH 7.4. 0.5 mM IBMX and 0.1% BSA, the final DMSO concentration is 1%). After 45 minutes incubation at room temperature (approx. 20° C.), the cAMP concentrations are determined using the AlphaScreen cAMP Assay Kit (Cat. No. #6760625R from PerkinElmer).
With `CCc1cnc(N2CCC(C3Cc4cc(-c5ccc(C(=O)NCC(C)(C)CO)cc5)ccc4O3)CC2)nc1` (stereo not drawn) [Example 63] the EC50 was 112 nM. For `CCc1cnc(N2CCC(C3Cc4cc(-c5ccc(C(=O)NCc6cocn6)cc5)ccc4O3)CC2)nc1` (stereo not drawn) [Example 64], the EC50 was 33 nM. In the case of `CCc1cnc(N2CCC(C3Cc4cc(-c5ccc(C(=O)NCCC(C)O)cc5)ccc4O3)CC2)nc1` (stereo not drawn) [Example 66], the EC50 is reported as 63 nM. `CCc1cnc(N2CCC(C3Cc4cc(-c5ccc(C(=O)NCC#N)cc5)ccc4O3)CC2)nc1` (stereo not drawn) [Example 67] showed an EC50 of 141 nM. For `CCc1cnc(N2CCC(C3Cc4cc(-c5ccc(C(=O)N6CCC(C)(O)C6)cc5)ccc4O3)CC2)nc1` (stereo not drawn) [Example 68], the EC50 was 60 nM. `CCc1cnc(N2CCC(C3Cc4cc(-c5ccc(C(=O)N6CCC(OC)CC6)cc5)ccc4O3)CC2)nc1` (stereo not drawn) [Example 69] showed an EC50 of 48 nM. `CCc1cnc(N2CCC(C3Cc4cc(-c5ccc(C(=O)N6CCC(O)C6)cc5)ccc4O3)CC2)nc1` (stereo not drawn) [Example 70] gave an EC50 of 108 nM. Work on `CCc1cnc(N2CCC(C3Cc4cc(-c5ccc(C(=O)N(C)CC#N)cc5)ccc4O3)CC2)nc1` (stereo not drawn) [Example 71] yielded an EC50 of 16 nM. Work on `CCc1cnc(N2CCC(C3Cc4cc(-c5ccc(C(=O)NCC6CCCO6)cc5)ccc4O3)CC2)nc1` (stereo not drawn) [Example 72] yielded an EC50 of 12 nM. Compound `CCc1cnc(N2CCC(C3Cc4cc(-c5ccc(C(=O)NCc6ccccn6)cc5)ccc4O3)CC2)nc1` (stereo not drawn) [Example 73] has an EC50 of 19 nM. `CCc1cnc(N2CCC(C3Cc4cc(-c5ccc(C(=O)NCC(C)O)cc5)ccc4O3)CC2)nc1` (stereo not drawn) [Example 74] gave an EC50 of 52 nM. `CCc1cnc(N2CCC(C3Cc4cc(-c5ccc(C(=O)NCCC(C)(C)O)cc5)ccc4O3)CC2)nc1` (stereo not drawn) [Example 75] was tested, and the EC50 was 81 nM. `CCc1cnc(N2CCC(C3Cc4cc(-c5ccc(C(=O)N6CC(OC)C6)cc5)ccc4O3)CC2)nc1` (stereo not drawn) [Example 76] was tested, and the EC50 was 59 nM. Work on `CCc1cnc(N2CCC(C3Cc4cc(-c5ccc(C(=O)NCC6COCCO6)cc5)ccc4O3)CC2)nc1` (stereo not drawn) [Example 77] yielded an EC50 of 19 nM. `CCc1cnc(N2CCC(C3Cc4cc(-c5ccc(C(=O)N(C)CCO)cc5)ccc4O3)CC2)nc1` (stereo not drawn) [Example 78] was tested, and the EC50 was 39 nM.
